From patent publication US20230219904A1 (SYNGENTA CROP PROTECTION AG, priority 2020, published 2023)

Experiments:
Assay type in all cases: in vivo
[1] = tested on: Amaranthus retoflexus (AMARE); assay: Pre-emergence herbicidal glasshouse test (Table B1); conditions: evaluated after 13 days
Description: (§1) Seeds of a variety of test species are sown in standard soil in pots (Lolium perenne (LOLPE), Amaranthus retoflexus (AMARE), Abutilon theophrasti (ABUTH), Setaria faberi (SETFA), Echinochloa crus-galh (ECHCG), Ipomoea hederacea (IPOHE)). After cultivation for one day (pre-emergence) or after 8 days cultivation (post-emergence) under controlled conditions in a glasshouse (at 24/16° C., day/night; 14 hours light; 65% humidity), the plants are sprayed with an aqueous spray solution derived from the formulation of the technical active ingredient in acetone/water (50:50) solution containing 0.5% Tween 20 (polyoxyethelyene sorbitan monolaurate, CAS RN 9005-64-5). Compounds are applied at 500 g/h unless otherwise indicated. The test plants are then grown in a glasshouse under controlled conditions in a glasshouse (at 24/16° C., day/night; 14 hours light; 65% humidity) and watered twice daily. After 13 days for pre and post-emergence, the test is evaluated for the percentage damage caused to the plant. The biological activities are shown in the following table on a five-point scale (5=80-100%; 4=60-79%; 3=40-59%; 2=20-39%; 1=0-19%).

[2] = tested on: Echinochloa crus-galh (ECHCG); assay: as above; conditions: evaluated after 13 days
Description: as §1

[3] = tested on: Ipomoea hederacea (IPOHE); assay: as above; conditions: evaluated after 13 days
Description: as §1

Setaria faberi (SETFA) [4] = assay: as above; conditions: evaluated after 13 days
Description: as §1

[5] = tested on: Amaranthus retoflexus (AMARE); assay: Post-emergence herbicidal glasshouse test (Table B1); conditions: evaluated after 13 days
Description: as §1

[6] = tested on: Echinochloa crus-galh (ECHCG); assay: as above; conditions: applied at 125 g/ha, evaluated after 13 days
Description: as §1

[7] = tested on: Ipomoea hederacea (IPOHE); assay: as above; conditions: evaluated after 13 days
Description: as §1

Setaria faberi (SETFA) [8] = assay: as above; conditions: evaluated after 13 days
Description: as §1

[9] = tested on: Abutilon theophrasti (ABUTH); assay: Pre-emergence herbicidal glasshouse test (Table B1); conditions: evaluated after 13 days
Description: as §1

Structure (SMILES)	PRE Application AMARE, percentage damage on five-point scale ([1]; applied at 125 g/ha)	PRE Application ECHCG, percentage damage on five-point scale ([2]; applied at 125 g/ha)	PRE Application IPOHE, percentage damage on five-point scale ([3]; applied at 125 g/ha)	PRE Application SETFA, percentage damage on five-point scale (Setaria faberi (SETFA) [4]; applied at 125 g/ha)	POST Application AMARE, percentage damage on five-point scale ([5]; applied at 125 g/ha)	POST Application ECHCG, percentage damage on five-point scale [6]	POST Application IPOHE, percentage damage on five-point scale ([7]; applied at 125 g/ha)	POST Application SETFA, percentage damage on five-point scale (Setaria faberi (SETFA) [8]; applied at 125 g/ha)	PRE Application ABUTH, percentage damage on five-point scale ([9]; applied at 125 g/ha)	PRE Application ABUTH, percentage damage on five-point scale ([9]; applied at 500 g/h)	PRE Application AMARE, percentage damage on five-point scale ([1]; applied at 500 g/h)	PRE Application ECHCG, percentage damage on five-point scale ([2]; applied at 500 g/h)	PRE Application IPOHE, percentage damage on five-point scale ([3]; applied)	PRE Application SETFA, percentage damage on five-point scale (Setaria faberi (SETFA) [4]; applied at 500 g/h)	POST Application AMARE, percentage damage on five-point scale ([5]; applied at 500 g/h)	POST Application IPOHE, percentage damage on five-point scale ([7]; applied at 500 g/h)	POST Application SETFA, percentage damage on five-point scale (Setaria faberi (SETFA) [8]; applied at 500 g/h)
CCCOCC(=O)Nc1c(OC(F)(F)F)ccc(C(=O)Nc2nnnn2C)c1Cl [Compound 1.062]	5 (5=80-100%)	2 (2=20-39%)	4 (4=60-79%)	3 (3=40-59%)	5 (5=80-100%)	4 (4=60-79%)	4 (4=60-79%)	5 (5=80-100%)									
CC(C)OCC(=O)Nc1c(OC(F)(F)F)ccc(C(=O)Nc2nnnn2C)c1Cl [Compound 1.064]	5 (5=80-100%)	3 (3=40-59%)	4 (4=60-79%)	4 (4=60-79%)	4 (4=60-79%)		4 (4=60-79%)	4 (4=60-79%)	5 (5=80-100%)								
CCOCC(=O)Nc1c(OC(F)(F)F)ccc(C(=O)Nc2nnnn2C)c1Cl [Compound 1.066]	5 (5=80-100%)	5 (5=80-100%)	5 (5=80-100%)	4 (4=60-79%)	4 (4=60-79%)		4 (4=60-79%)	4 (4=60-79%)	5 (5=80-100%)								
CCn1nnnc1NC(=O)c1ccc(OC(F)(F)F)c(NC(=O)CC(F)(F)F)c1Cl [Compound 1.068]	5 (5=80-100%)	5 (5=80-100%)	3 (3=40-59%)	5 (5=80-100%)	4 (4=60-79%)		4 (4=60-79%)	5 (5=80-100%)	5 (5=80-100%)								
CCn1nnnc1NC(=O)c1ccc(OC(F)F)c(NC(=O)c2cc(OC)ccn2)c1Cl [Compound 1.080]	4 (4=60-79%)	1 (1=0-19%)	2 (2=20-39%)	1 (1=0-19%)	4 (4=60-79%)		4 (4=60-79%)	4 (4=60-79%)	1 (1=0-19%)								
Cn1nnnc1NC(=O)c1ccc(OC(F)F)c(NC(=O)c2ncccc2Cl)c1Cl [Compound 1.092]	5 (5=80-100%)		3 (3=40-59%)	5 (5=80-100%)	3 (3=40-59%)		4 (4=60-79%)	4 (4=60-79%)	5 (5=80-100%)								
CCC(=O)Nc1c(OC(F)(F)C(F)F)ccc(C(=O)Nc2nnnn2C)c1Cl [Compound 1.109]										5 (5=80-100%)	5 (5=80-100%)	4 (4=60-79%)	5 (5=80-100%)	4 (4=60-79%)	5 (5=80-100%)	5 (5=80-100%)	5 (5=80-100%)
